The values that follow come from patent publication US20260364089A1, “PYRIDOPYRIMIDINE KRAS INHIBITORS” (Treeline Biosciences, Inc., priority 2022, published 2026).

In the assay the target is T1, KRas G12V (Homo sapiens, UniProt P01116, G12V).
T1 construct: Biotinylated KRas G12V (aa 1-169) loaded with GDP nucleotide; biotin (biotinylated)
T1 sequence (P01116 1-169 G12V): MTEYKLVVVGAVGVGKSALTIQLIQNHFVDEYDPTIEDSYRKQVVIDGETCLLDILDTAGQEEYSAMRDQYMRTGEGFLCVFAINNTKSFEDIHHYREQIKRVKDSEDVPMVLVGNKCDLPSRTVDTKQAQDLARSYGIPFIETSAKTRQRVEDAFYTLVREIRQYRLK
The assay is described as follows: SOS1-Catalyzed Nucleotide Exchange Assay, KRas G12V (Method 2). Type of assay: biochemical. As to conditions: Method 2, B; 5 nM KRas G12V (aa 1-169, GDP-loaded), 50 nM SOS1; read-out: KRas G12V IC50 (nM) (Method 2, B). As for the experimental part:
KRas G12V [Method 2]: Compounds were pre-dispensed via Echo liquid handling (acoustic, touch-free) to generate assay ready plates (ARP). More precisely, a 10-point concentration response curve for each compound was prepared with appropriate top concentration (1 μM, 10 μM, 100 μM). Biotinylated KRas G12V (aa 1-169) loaded with GDP nucleotide and Streptavidin-Europium (SA-EU, Columbia Biosciences) were preincubated in assay buffer (20 mM HEPES pH 7.4, 150 mM NaCl, 5 mM MgCl2, 1 mM DTT, 0.01% Brij-35, 0.3 mg/mL BSA) on ice for 30 min. Separately SOS1 (aa 546-1049) and EDA-GTP-DY647P1 (Jena Bioscience) were preincubated in assay buffer on ice for 30 min. After 30 minutes of incubation for the assay components, 5 μL buffer and 5 μL of KRas G12V-SA-Eu were added to each well of the ARP. After a further 30 min, 5 μL of SOS1-EDA-GTP-D467P1 was added to start the nucleotide exchange reaction. Final concentration in the assay were 5 nM KRas G12V, 50 nM SOS1 (aa 564-1049). The reaction was allowed to proceed for 60-90 minutes after which the plate was read on a plate reader. After normalization of the raw data, the data was fit to a four-parameter logistic curve.
As for `Nc1cc(Cl)c2c(c1)-c1ncc3c(nc(OC[C@@]45CCCN4C[C@H](F)C5)nc3c1F)N1CCC(CCNC(=O)CCCC2)C1` (stereo partly drawn) [Compound 164a, 3^5-amino-3^3-chloro-2^8-fluoro-2^2-(((2R,7aS)-2-fluorotetrahydro-1H-pyrrolizin-7a(5H)-yl)methoxy)-9-aza-2(4,7)-pyrido[4,3-d]pyrimidina-1(1,3)-pyrrolidina-3(1,2)-benzenacycloundecaphan-8-one], the IC50 fell in the range of 1000 to 10000 nM.

As for `Nc1cc(Cl)c2c(c1)-c1ccc3c(nc(OC[C@@]45CCCN4C[C@H](F)C5)nc3c1F)N1CCCC(CCNC(=O)CCCC2)C1` (stereo partly drawn) [Compound 165a, 3^5-amino-3^3-chloro-2^8-fluoro-2^2-(((2R,7aS)-2-fluorotetrahydro-1H-pyrrolizin-7a(5H)-yl)methoxy)-9-aza-2(4,7)-quinazolina-1(1,3)-piperidina-3(1,2)-benzenacycloundecaphan-8-one], the IC50 was not above 100 nM.

`O=C1CCCCc2ccc3[nH]ncc3c2-c2ccc3c(nc(OC[C@@]45CCCN4C[C@H](F)C5)nc3c2F)N2CCCC(CCN1)C2` (stereo partly drawn) [Compound 166a, 2^8-fluoro-2^2-(((2R,7aS)-2-fluorotetrahydro-1H-pyrrolizin-7a(5H)-yl)methoxy)-1^1H-6-aza-2(7,4)-quinazolina-1(4,5)-indazola-3(1,3)-piperidinacycloundecaphan-7-one]: the IC50 is not above 100 nM.

`O=C1CCCCc2ccc3[nH]ncc3c2-c2ncc3c(nc(OC[C@@]45CCCN4C[C@H](F)C5)nc3c2F)N2CCCC(CCN1)C2` (stereo partly drawn) [Compound 167a, 2^8-fluoro-2^2-(((2R,7aS)-2-fluorotetrahydro-1H-pyrrolizin-7a(5H)-yl)methoxy)-1^1H-6-aza-2(7,4)-pyrido[4,3-d]pyrimidina-1(4,5)-indazola-3(1,3)-piperidinacycloundecaphan-7-one]: the half-maximal inhibitory concentration (IC50) was not above 100 nM.

Take `O=C1CCCc2c(F)ccc3cccc(c23)-c2ncc3c(nc(OC[C@@]45CCCN4C[C@H](F)C5)nc3c2F)N2CCCC(CCN1)C2` (stereo partly drawn) [Compound 170a, 2^8,3^7-difluoro-2^2-(((2R,7aS)-2-fluorotetrahydro-1H-pyrrolizin-7a(5H)-yl)methoxy)-8-aza-2(4,7)-pyrido[4,3-d]pyrimidina-1(1,3)-piperidina-3(1,8)-naphthalenacyclodecaphan-7-one]: the IC50 is not above 100 nM.

Turning to `CN1CCC[C@H]1COc1nc2c3cnc(c(F)c3n1)-c1cc(N)cc(Cl)c1CCCCC(=O)NCCC1CCCN2C1` (stereo partly drawn) [Compound 171a, 3^5-amino-3^3-chloro-2^8-fluoro-2^2-(((S)-1-methylpyrrolidin-2-yl)methoxy)-9-aza-2(4,7)-pyrido[4,3-d]pyrimidina-1(1,3)-piperidina-3(1,2)-benzenacycloundecaphan-8-one], the IC50 was 100 to 1000 nM.

In the case of `Nc1cc2c(c(Cl)c1F)CCCCC(=O)NCCC1CCCN(C1)c1nc(OC[C@@]34CCCN3C[C@H](F)C4)nc3c(F)c-2ncc13` (stereo partly drawn) [Compound 172a, 3^5-amino-3^3-chloro-2^8,3^4-difluoro-2^2-(((2R,7aS)-2-fluorotetrahydro-1H-pyrrolizin-7a(5H)-yl)methoxy)-9-aza-2(4,7)-pyrido[4,3-d]pyrimidina-1(1,3)-piperidina-3(1,2)-benzenacycloundecaphan-8-one], the IC50 was not above 100 nM.

Turning to `O=C1CCCc2c(F)ccc3cc(O)cc(c23)-c2ncc3c(nc(OC[C@@]45CCCN4C[C@H](F)C5)nc3c2F)N2CCOCC(CN1)C2` (stereo partly drawn) [Compound 173a, 2^8,3^7-difluoro-2^2-(((2R,7aS)-2-fluorotetrahydro-1H-pyrrolizin-7a(5H)-yl)methoxy)-3^3-hydroxy-8-aza-1(4,6)-oxazepana-2(4,7)-pyrido[4,3-d]pyrimidina-3(1,8)-naphthalenacyclononaphan-7-one], the IC50 is not above 100 nM.

For the compound `Nc1cc2c(c(Cl)c1F)CCCCC(=O)NCCC1CCCN(C1)c1nc(OC[C@@]34CCCN3C[C@H](F)C4)nc3c(F)c-2ccc13` (stereo partly drawn) [Compound 174a, 3^5-amino-3^3-chloro-2^8,3^4-difluoro-2^2-(((2R,7aS)-2-fluorotetrahydro-1H-pyrrolizin-7a(5H)-yl)methoxy)-9-aza-2(4,7)-quinazolina-1(1,3)-piperidina-3(1,2)-benzenacycloundecaphan-8-one], the 50% inhibitory concentration (IC50) is 100 to 1000 nM.

As for `O=C1CCCc2c(F)ccc3cc(O)cc(c23)-c2ccc3c(nc(OC[C@@]45CCCN4C[C@H](F)C5)nc3c2F)N2CCCC(CCN1)C2` (stereo partly drawn) [Compound 175a, 2^8,3^7-difluoro-2^2-(((2R,7aS)-2-fluorotetrahydro-1H-pyrrolizin-7a(5H)-yl)methoxy)-3^3-hydroxy-8-aza-2(4,7)-quinazolina-1(1,3)-piperidina-3(1,8)-naphthalenacyclodecaphan-7-one], the IC50 was not above 100 nM.

As to `CN1CCC[C@H]1CCOc1nc2c3cnc(c(F)c3n1)-c1cc(N)cc(Cl)c1CCCCC(=O)NCCC1CCCN2C1` (stereo partly drawn) [Compound 176a, 3^5-amino-3^3-chloro-2^8-fluoro-2^2-(2-((S)-1-methylpyrrolidin-2-yl)ethoxy)-9-aza-2(4,7)-pyrido[4,3-d]pyrimidina-1(1,3)-piperidina-3(1,2)-benzenacycloundecaphan-8-one], the IC50 lay in the range of 100 to 1000 nM.

For `Nc1cc(Cl)c2c(c1)-c1ncc3c(nc(OCC4(CN5CCOCC5)CC4)nc3c1F)N1CCCC(CCNC(=O)CCCC2)C1` (stereo not shown) [Compound 177, 3^5-amino-3^3-chloro-2^8-fluoro-2^2-((1-(morpholinomethyl)cyclopropyl)methoxy)-9-aza-2(4,7)-pyrido[4,3-d]pyrimidina-1(1,3)-piperidina-3(1,2)-benzenacycloundecaphan-8-one], the IC50 was 100 to 1000 nM.

As to `CN(C)CC1(COc2nc3c4cnc(c(F)c4n2)-c2cc(N)cc(Cl)c2CCCCC(=O)NCCC2CCCN3C2)CC1` (stereo not shown) [Compound 178, 3^5-amino-3^3-chloro-2^2-((1-((dimethylamino)methyl)cyclopropyl)methoxy)-2^8-fluoro-9-aza-2(4,7)-pyrido[4,3-d]pyrimidina-1(1,3)-piperidina-3(1,2)-benzenacycloundecaphan-8-one], the IC50 fell in the range of 100 to 1000 nM.

As to `CN1C[C@H](F)C[C@H]1COc1nc2c3cnc(c(F)c3n1)-c1cc(N)cc(Cl)c1CCCCC(=O)NCCC1CCCN2C1` (stereo partly drawn) [Compound 179a, 3^5-amino-3^3-chloro-2^8-fluoro-2^2-(((2S,4R)-4-fluoro-1-methylpyrrolidin-2-yl)methoxy)-9-aza-2(4,7)-pyrido[4,3-d]pyrimidina-1(1,3)-piperidina-3(1,2)-benzenacycloundecaphan-8-one], the IC50 is 100 to 1000 nM.

Consider `Nc1cc2c(c(Cl)c1F)CCCCC(=O)NCCC1(O)CCCN(C1)c1nc(OC[C@@]34CCCN3C[C@H](F)C4)nc3c(F)c-2ccc13` (stereo partly drawn) [Compound 180a, 3^5-amino-3^3-chloro-2^8,3^4-difluoro-2^2-(((2R,7aS)-2-fluorotetrahydro-1H-pyrrolizin-7a(5H)-yl)methoxy)-13-hydroxy-9-aza-2(4,7)-quinazolina-1(1,3)-piperidina-3(1,2)-benzenacycloundecaphan-8-one], for which the IC50 fell in the range of 100 to 1000 nM.

`Nc1cc2c(c(C(F)(F)F)c1)CCCCC(=O)NCCC1CCCN(C1)c1nc(OC[C@@]34CCCN3C[C@H](F)C4)nc3c(F)c-2ncc13` (stereo partly drawn) [Compound 181a, 3^5-amino-2^8-fluoro-2^2-(((2R,7aS)-2-fluorotetrahydro-1H-pyrrolizin-7a(5H)-yl)methoxy)-3^3-(trifluoromethyl)-9-aza-2(4,7)-pyrido[4,3-d]pyrimidina-1(1,3)-piperidina-3(1,2)-benzenacycloundecaphan-8-one]: the IC50 was 1000 to 10000 nM.

On to `Nc1cc2c(c(Cl)c1F)CCCCC(=O)NCC1COCCN(C1)c1nc(OC[C@@]34CCCN3C[C@H](F)C4)nc3c(F)c-2ncc13` (stereo partly drawn) [Compound 182a, 3^5-amino-3^3-chloro-2^8,3^4-difluoro-2^2-(((2R,7aS)-2-fluorotetrahydro-1H-pyrrolizin-7a(5H)-yl)methoxy)-9-aza-1(4,6)-oxazepana-2(4,7)-pyrido[4,3-d]pyrimidina-3(1,2)-benzenacyclodecaphan-8-one], for which the IC50 lay within 100 to 1000 nM.

On to `Nc1cc2c(c(Cl)c1F)CCCCC(=O)NCCC1(O)CCCN(C1)c1nc(OC[C@@]34CCCN3C[C@H](F)C4)nc3c(F)c-2c(F)cc13` (stereo partly drawn) [Compound 183a, 3^5-amino-3^3-chloro-2^6,2^8,3^4-trifluoro-2^2-(((2R,7aS)-2-fluorotetrahydro-1H-pyrrolizin-7a(5H)-yl)methoxy)-1^3-hydroxy-9-aza-2(4,7)-quinazolina-1(1,3)-piperidina-3(1,2)-benzenacycloundecaphan-8-one], for which the IC50 was 100 to 1000 nM.

`Nc1cc2c(c(Cl)c1F)CCCCC(=O)NCC1COCCN(C1)c1nc(OC[C@@]34CCCN3C[C@H](F)C4)nc3c(F)c-2c(F)cc13` (stereo partly drawn) [Compound 184a, 3^5-amino-3^3-chloro-2^6,2^8,3^4-trifluoro-2^2-(((2R,7aS)-2-fluorotetrahydro-1H-pyrrolizin-7a(5H)-yl)methoxy)-9-aza-1(4,6)-oxazepana-2(4,7)-quinazolina-3(1,2)-benzenacyclodecaphan-8-one]: the IC50 lay within 100 to 1000 nM.

Usually IC50 stands for the concentration needed to halve the response being measured.
